Tests used:
[1] = target: Growth hormone secretagogue receptor type 1 (Homo sapiens, UniProt Q92847)
[2] = target: T1, Neuropeptide Y receptor type 1 (Homo sapiens, UniProt P25929)
T1 sequence (P25929 whole entry): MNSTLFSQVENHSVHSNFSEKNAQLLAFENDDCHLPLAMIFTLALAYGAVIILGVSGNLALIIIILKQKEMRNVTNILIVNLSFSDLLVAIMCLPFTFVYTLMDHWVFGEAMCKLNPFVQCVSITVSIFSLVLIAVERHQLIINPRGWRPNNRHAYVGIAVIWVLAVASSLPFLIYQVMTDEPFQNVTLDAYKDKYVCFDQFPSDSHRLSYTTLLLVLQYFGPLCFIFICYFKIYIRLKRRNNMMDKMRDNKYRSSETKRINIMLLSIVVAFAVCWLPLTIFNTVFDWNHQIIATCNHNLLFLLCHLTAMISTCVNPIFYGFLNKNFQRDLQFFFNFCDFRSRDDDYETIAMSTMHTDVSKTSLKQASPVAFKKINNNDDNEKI

B2 bradykinin receptor = target: T2, B2 bradykinin receptor (Homo sapiens, UniProt P30411)
T2 sequence (P30411 whole entry): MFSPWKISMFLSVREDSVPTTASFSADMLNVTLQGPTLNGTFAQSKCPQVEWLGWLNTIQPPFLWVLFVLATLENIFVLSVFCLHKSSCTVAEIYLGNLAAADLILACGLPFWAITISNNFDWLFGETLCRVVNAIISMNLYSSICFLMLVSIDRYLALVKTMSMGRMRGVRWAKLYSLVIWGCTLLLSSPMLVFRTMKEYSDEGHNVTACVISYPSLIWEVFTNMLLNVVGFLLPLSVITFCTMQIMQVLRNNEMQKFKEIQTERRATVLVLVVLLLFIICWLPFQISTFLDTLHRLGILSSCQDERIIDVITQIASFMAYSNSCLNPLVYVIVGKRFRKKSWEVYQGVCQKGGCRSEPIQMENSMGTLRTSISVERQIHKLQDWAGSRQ

[3] = target: T3, Prostaglandin G/H synthase 1 (Rattus norvegicus, UniProt Q63921); type: functional
T3 sequence (Q63921 whole entry): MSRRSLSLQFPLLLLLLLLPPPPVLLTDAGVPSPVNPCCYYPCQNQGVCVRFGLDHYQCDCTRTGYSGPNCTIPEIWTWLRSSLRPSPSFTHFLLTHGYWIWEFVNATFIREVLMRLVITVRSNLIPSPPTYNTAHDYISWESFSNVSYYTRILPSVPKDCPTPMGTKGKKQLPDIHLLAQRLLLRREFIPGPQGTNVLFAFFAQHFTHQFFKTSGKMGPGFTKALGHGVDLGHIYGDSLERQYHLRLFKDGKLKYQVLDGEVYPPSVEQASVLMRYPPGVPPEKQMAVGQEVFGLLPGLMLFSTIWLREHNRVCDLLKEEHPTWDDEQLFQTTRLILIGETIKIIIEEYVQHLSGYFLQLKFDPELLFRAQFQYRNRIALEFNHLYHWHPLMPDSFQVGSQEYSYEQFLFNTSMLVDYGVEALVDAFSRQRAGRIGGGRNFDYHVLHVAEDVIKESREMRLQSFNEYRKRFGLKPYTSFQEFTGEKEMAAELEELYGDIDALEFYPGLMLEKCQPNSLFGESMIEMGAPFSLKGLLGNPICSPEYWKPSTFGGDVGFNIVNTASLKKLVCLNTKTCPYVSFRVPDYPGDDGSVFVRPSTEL

[4] = target: T4, 5-hydroxytryptamine receptor 3A (Homo sapiens, UniProt P46098); type: functional
T4 sequence (P46098 whole entry): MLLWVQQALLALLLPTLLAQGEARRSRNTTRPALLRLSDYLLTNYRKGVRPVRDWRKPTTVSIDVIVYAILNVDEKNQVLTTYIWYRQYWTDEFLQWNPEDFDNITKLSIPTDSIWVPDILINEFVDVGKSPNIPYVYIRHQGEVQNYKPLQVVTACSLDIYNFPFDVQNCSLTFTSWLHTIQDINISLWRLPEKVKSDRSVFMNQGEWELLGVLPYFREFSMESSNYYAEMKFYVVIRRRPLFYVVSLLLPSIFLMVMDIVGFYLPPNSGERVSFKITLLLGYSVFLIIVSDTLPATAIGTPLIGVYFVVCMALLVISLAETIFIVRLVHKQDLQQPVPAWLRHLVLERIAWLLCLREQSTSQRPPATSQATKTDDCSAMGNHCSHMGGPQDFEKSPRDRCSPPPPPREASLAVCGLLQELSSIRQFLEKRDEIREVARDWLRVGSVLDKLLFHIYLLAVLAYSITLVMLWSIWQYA

[5] = target: Gamma-aminobutyric acid receptor subunit alpha-1 (Rattus norvegicus, UniProt P62813)
Gamma-aminobutyric acid receptor subunit alpha-1, sequence (P62813 whole entry): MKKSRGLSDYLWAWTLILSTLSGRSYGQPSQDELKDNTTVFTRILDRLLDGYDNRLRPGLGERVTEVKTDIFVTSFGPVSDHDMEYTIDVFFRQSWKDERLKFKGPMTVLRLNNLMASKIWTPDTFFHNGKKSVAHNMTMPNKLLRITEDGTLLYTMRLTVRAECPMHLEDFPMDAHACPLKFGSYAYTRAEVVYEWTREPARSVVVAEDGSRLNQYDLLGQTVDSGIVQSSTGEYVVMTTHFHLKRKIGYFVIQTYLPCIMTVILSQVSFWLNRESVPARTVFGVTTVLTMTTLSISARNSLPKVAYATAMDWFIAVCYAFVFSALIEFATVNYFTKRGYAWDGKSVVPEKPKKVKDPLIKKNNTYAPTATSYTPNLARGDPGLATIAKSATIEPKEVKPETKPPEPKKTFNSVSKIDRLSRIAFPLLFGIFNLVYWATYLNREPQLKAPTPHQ

[6] = target: Kappa-type opioid receptor (Homo sapiens, UniProt P41145)
Kappa-type opioid receptor, sequence (P41145 whole entry): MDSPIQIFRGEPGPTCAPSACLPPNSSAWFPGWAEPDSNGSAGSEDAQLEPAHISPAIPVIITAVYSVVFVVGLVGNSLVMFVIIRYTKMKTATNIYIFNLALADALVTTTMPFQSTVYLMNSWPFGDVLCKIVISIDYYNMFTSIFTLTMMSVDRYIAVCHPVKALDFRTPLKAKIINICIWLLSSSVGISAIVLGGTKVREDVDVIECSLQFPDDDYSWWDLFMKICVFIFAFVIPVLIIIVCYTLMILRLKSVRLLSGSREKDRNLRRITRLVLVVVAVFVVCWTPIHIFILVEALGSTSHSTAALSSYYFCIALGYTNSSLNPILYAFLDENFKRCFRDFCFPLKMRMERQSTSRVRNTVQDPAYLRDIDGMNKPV

[7] = target: T5, Muscarinic acetylcholine receptor M2 (Homo sapiens, UniProt P08172); type: functional, cell-based
T5 sequence (P08172 whole entry): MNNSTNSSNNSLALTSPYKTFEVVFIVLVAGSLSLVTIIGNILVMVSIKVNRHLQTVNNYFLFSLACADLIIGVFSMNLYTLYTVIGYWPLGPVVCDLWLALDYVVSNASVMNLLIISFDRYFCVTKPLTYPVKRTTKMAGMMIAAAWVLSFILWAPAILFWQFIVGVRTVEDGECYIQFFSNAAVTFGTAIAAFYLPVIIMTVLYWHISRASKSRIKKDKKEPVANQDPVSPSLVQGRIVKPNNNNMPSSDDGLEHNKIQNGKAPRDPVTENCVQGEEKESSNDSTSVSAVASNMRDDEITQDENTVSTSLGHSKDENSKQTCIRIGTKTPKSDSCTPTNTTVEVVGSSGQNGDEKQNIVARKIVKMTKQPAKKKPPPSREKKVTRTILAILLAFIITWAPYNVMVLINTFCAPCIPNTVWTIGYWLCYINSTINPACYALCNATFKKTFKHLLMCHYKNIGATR

[8] = target: Delta-type opioid receptor (Homo sapiens, UniProt P41143)
Delta-type opioid receptor, sequence (P41143 whole entry): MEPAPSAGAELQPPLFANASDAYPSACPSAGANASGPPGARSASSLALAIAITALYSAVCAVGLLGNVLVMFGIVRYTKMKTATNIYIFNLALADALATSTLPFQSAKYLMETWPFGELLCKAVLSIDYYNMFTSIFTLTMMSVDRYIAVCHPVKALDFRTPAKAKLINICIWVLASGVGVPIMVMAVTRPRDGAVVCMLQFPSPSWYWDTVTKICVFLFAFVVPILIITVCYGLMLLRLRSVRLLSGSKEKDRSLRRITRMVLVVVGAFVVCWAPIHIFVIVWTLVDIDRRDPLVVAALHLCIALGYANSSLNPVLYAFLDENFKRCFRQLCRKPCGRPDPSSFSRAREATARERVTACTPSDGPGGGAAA
Further: assay procedure not described here.

Growth hormone secretagogue receptor type 1, sequence (Q92847 whole entry): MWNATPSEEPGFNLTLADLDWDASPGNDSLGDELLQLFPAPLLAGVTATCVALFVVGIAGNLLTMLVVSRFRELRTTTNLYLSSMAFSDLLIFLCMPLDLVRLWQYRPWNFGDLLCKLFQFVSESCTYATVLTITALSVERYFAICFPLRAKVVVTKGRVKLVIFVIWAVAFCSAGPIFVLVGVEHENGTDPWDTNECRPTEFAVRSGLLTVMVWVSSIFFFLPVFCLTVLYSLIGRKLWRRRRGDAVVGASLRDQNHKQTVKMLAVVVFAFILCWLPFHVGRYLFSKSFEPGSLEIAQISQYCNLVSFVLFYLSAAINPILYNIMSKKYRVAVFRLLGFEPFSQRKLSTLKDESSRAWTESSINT

Structure (SMILES) | AC50 [1] | AC50 [2] | AC50 (B2 bradykinin receptor) | AC50 [3] | AC50 [4] | AC50 [5] | AC50 [6] | AC50 [7] | AC50 [8]
CCC(CC)(CC(=O)Nc1cccc(/C=C/c2nc(C3CCC3)cs2)c1)C(=O)O | > 30 µM | > 30 µM | > 30 µM | > 30 µM |  |  |  |  | 
O=[N+]([O-])O[C@@H]1CO[C@H]2[C@@H]1OC[C@@H]2O [ISOSORBIDE MONONITRATE] | > 30 µM | > 30 µM | > 30 µM | > 30 µM | > 30 µM | > 10 µM | > 10 µM | > 10 µM | > 30 µM
O=[N+]([O-])c1cn2c(n1)OC[C@@H](OCc1ccc(OC(F)(F)F)cc1)C2 [PRETOMANID] | > 30 µM | > 30 µM | > 30 µM |  | > 10 µM | > 10 µM | > 10 µM |  | > 10 µM
Cc1oc(=O)oc1CN1CCN(c2cc3c(cc2F)c(=O)c(C(=O)O)c2n3C(C)S2)CC1 (stereo not given) [PRULIFLOXACIN] |  |  |  |  | > 30 µM | > 30 µM | > 30 µM | > 30 µM | > 30 µM
Cc1cc(C)c(NC(=O)CN(CC(=O)O)CC(=O)O)c(C)c1Br [MEBROFENIN] |  |  |  |  | > 30 µM | > 30 µM | > 30 µM | > 30 µM | > 30 µM
COC1=C(OC)C(=O)C(C/C=C(\C)CC/C=C(\C)CC/C=C(\C)CC/C=C(\C)CC/C=C(\C)CC/C=C(\C)CC/C=C(\C)CC/C=C(\C)CC/C=C(\C)CCC=C(C)C)=C(C)C1=O [UBIDECARENONE] |  |  |  |  | > 30 µM | > 30 µM | > 30 µM | > 30 µM | > 30 µM
CC[C@H]1CN2CCc3cc(OC)c(OC)cc3[C@@H]2C[C@@H]1C[C@H]1NCCc2cc(OC)c(OC)cc21 [EMETINE] | > 30 µM | > 30 µM | > 30 µM | > 30 µM | > 30 µM | > 30 µM | > 30 µM | > 30 µM | > 30 µM
CN1CCN(C2=Nc3ccccc3Sc3ccc(Cl)cc32)CC1 [CLOTHIAPINE] |  |  |  |  | 9 µM | > 30 µM | > 30 µM | > 30 µM | 22 µM
C=CCN1C[C@H](C(=O)N(CCCN(C)C)C(=O)NCC)C[C@@H]2c3cccc4[nH]cc(c34)C[C@H]21 [CABERGOLINE] | > 10 µM | > 10 µM | > 10 µM | > 10 µM | > 30 µM | > 10 µM | > 10 µM | > 30 µM | > 30 µM
CN(C)CCC=C1c2ccccc2C=Cc2ccccc21 [CYCLOBENZAPRINE] | > 30 µM | > 30 µM | > 30 µM | > 30 µM | > 30 µM | > 10 µM |  |  | > 30 µM
CCOc1ccccc1OCC1CNCCO1 (stereo not given) [VILOXAZINE] | > 30 µM | > 30 µM | > 30 µM | > 30 µM | > 10 µM | > 10 µM | > 10 µM | > 10 µM | > 10 µM
COc1ccc(C(=O)Nc2ccccc2CCC2CCCCN2C)cc1 (stereo not given) [ENCAINIDE] | > 30 µM | > 30 µM | > 30 µM | > 30 µM | > 30 µM | > 10 µM | 3.6 µM | > 10 µM | > 30 µM
CN(C)CCc1c[nH]c2ccc(C[C@H]3COC(=O)N3)cc12 [ZOLMITRIPTAN] | > 30 µM | > 30 µM | > 30 µM | > 30 µM | > 30 µM | > 30 µM | > 30 µM | > 30 µM | > 10 µM
CN(C)CC/C=C1\c2ccccc2CSc2ccccc21 [DOTHIEPIN] | > 30 µM | > 30 µM | > 30 µM | > 30 µM | > 30 µM | > 30 µM |  | > 30 µM | > 30 µM
CC[C@@H](C(N)=O)N1CCCC1=O | > 30 µM | > 30 µM | > 30 µM | > 30 µM | > 30 µM |  | > 30 µM | > 30 µM | > 30 µM
CCOc1ccc(Cc2cc([C@@H]3O[C@H](CO)[C@@H](O)[C@H](O)[C@H]3O)ccc2Cl)cc1 [DAPAGLIFLOZIN] | > 30 µM | > 30 µM | > 30 µM | > 30 µM | > 30 µM | > 10 µM | > 10 µM |  | > 30 µM
COc1ccccc1N1CCN(CC(O)COc2cccc3ccccc23)CC1 (stereo not given) [NAFTOPIDIL] |  |  |  | > 30 µM | > 30 µM | > 30 µM | 2.2 µM | > 30 µM | 12 µM
COc1cc2nc(N3CCN(C(=O)c4ccco4)CC3)nc(N)c2cc1OC [PRAZOSIN] | > 30 µM | > 30 µM | > 30 µM | > 30 µM | > 10 µM | > 10 µM | 4.94 µM | > 10 µM | > 10 µM
CCCC1O[C@@H]2C[C@H]3[C@@H]4CCC5=CC(=O)C=C[C@]5(C)[C@H]4[C@@H](O)C[C@]3(C)[C@]2(C(=O)CO)O1 (stereo not given in full) [BUDESONIDE] | > 10 µM | > 10 µM | > 10 µM | > 10 µM | > 30 µM | > 10 µM | > 10 µM | > 10 µM | > 30 µM
NC1CCN(c2c(F)cc3c(=O)c(C(=O)O)cn(C4CC4)c3c2Cl)C1 (stereo not given) [CLINAFLOXACIN] |  |  |  |  |  |  |  |  | 18 µM
CCCCCNC(=N)N/N=C/c1c[nH]c2ccc(OC)cc12 [TEGASEROD] | 11.4 µM | 11.4 µM | > 30 µM | 25 µM | > 30 µM | > 30 µM | 4.9 µM | > 30 µM | > 30 µM

— ChEMBL document CHEMBL5291721, “A preclinical secondary pharmacology resource illuminates target-adverse drug reaction associations of marketed drugs” (Nat Commun, 2023)
